The record followed here is publication PMC11855827, “High-Throughput Screening of Five Compound Libraries for Anthelmintic Activity and Toxicity Leads to the Discovery of Two Flavonoid Compounds” (International Journal of Molecular Sciences, 2025).

Where two headings read alike, the source gives them in different places.

In the assay the test system is C. elegans. Description: microbe, parasite or virus in culture. The note with it: Caenorhabditis elegans.
Setting [1] is: 0 h, read-out: Percentage of motility inhibition 0 h, Table S2, C. elegans SS assay, 110 μM, 0 h, averages of 4 data points.
Where [2] appears, read: 24 h, read-out: Percentage of motility inhibition 24 h, Table S2, C. elegans SS assay, 110 μM, 24 h, averages of 4 data points.
Setting [3] is: 0 h, read-out: Percentage of motility inhibition 0 h.
[4] abbreviates: 24 h, read-out: Percentage of motility inhibition 24 h.

For `CC1(C)[C@H](O)CC[C@@]2(C)[C@@H]3CC[C@](C)([C@@H](O)CO[C@@H]4O[C@H](CO)[C@@H](O)[C@H](O)[C@H]4O)C=C3CC[C@H]12` [Darutoside], the inhibition (commonly the relative decrease from the control value, in per cent) at 110 µM was determined as 2% under setting [1] and 9% under setting [2].
For `COc1ccc2c(OC)c3ccoc3nc2c1` [Evolitrine], the inhibition at 110 µM by setting is: under setting [1], 0%; under setting [2], 15%.
Taken in the same sequence, the figures for `C=C1CCC[C@]2(C)C[C@]3(O)OC(=O)C(C)=C3C[C@@H]12` [Atractylenolide III] were 3% and 6%.
Taken in the same sequence, the figures for `COC(=O)c1cc(OC)c2c(c1-c1c(CO)cc(OC)c3c1OCO3)OCO2` [Bicyclol] were 23% and 4%.
Taken in the same sequence, the figures for `O=C(O)CC(O)(CC(=O)O)C(=O)O` [Citric acid] were 0% and 18%.
As for `CC(=O)O[C@H]1C[C@@]2(C)[C@@H](C[C@@H](O)[C@H]3[C@@]4(C)CC[C@@H](O)[C@@H](C)[C@@H]4CC[C@@]32C)/C1=C(\CCC=C(C)C)C(=O)O` [Fusidic acid], the inhibition at 110 µM was 0% under setting [1] and 1% under setting [2].
Taken in the same sequence, the figures for `O=C[C@H](O)[C@@H](O)[C@H](O)CO` [Xylose] were 17% and 11%.
Taken in the same sequence, the figures for `Nc1nc(N)c(O[C@@H]2O[C@H](CO)[C@@H](O)[C@H](O)[C@H]2O)c(=O)[nH]1` [Vicine] were 0% and 0%.
As to `COc1c(-c2ccc(O)c(O)c2)oc2cc(O)cc(O)c2c1=O` [3‐O‐Methylquercetin], the inhibition at 110 µM by setting is: under setting [1], 3%; under setting [2], 16%.
On to `C/C1=C\CC[C@]23O[C@H]2[C@@H](OC3=O)c2c(C)coc2C1` [Linderane], for which the inhibition at 110 µM reads like this: under setting [1], 5%; under setting [2], 16%.
Taken in the same sequence, the figures for `CC[C@]12C=CCN3CC[C@]4(C(=C(C(=O)OC)C1)Nc1ccccc14)[C@@H]32` [Tabersonine] were 0% and 1%.
As to `Nc1nc(O)c2ncn(COC(CO)CO)c2n1` [Ganciclovir], the inhibition at 110 µM under setting [1] turned out to be 22% and the inhibition at 110 µM under setting [2] turned out to be 5%.
On to `COc1cc(O)c2c(=O)c3c(O[C@@H]4O[C@H](CO)[C@@H](O)[C@H](O)[C@H]4O)ccc(O)c3oc2c1` [Swertianolin], for which the inhibition at 110 µM runs as follows: under setting [1], 11%; under setting [2], 0%.
For `COc1cc2c3c(cc4ccccc4c3c1OC)N(C)CC2` [Dehydronuciferine], in that order: 6% and 6%.
Taken in the same sequence, the figures for `COc1cc(O)c(CC=C(C)C)c(O)c1C(=O)/C=C/c1ccc(O)cc1` [Xanthohumol] were 23% and 13%.
For `COc1ccc2c(c1OC)C(=O)O[C@@H]2[C@H]1c2cc3c(cc2CCN1C)OCO3` [Hydrastine], in that order: 0% and 19%.
As for `O=C1c2ccccc2-n2c1nc1ccccc1c2=O` [Tryptanthrin], the inhibition at 110 µM runs as follows: under setting [3], 11%; under setting [4], 0%.
With `C[C@@H]1O[C@@H](O[C@H]2[C@H](O)[C@@H](O)[C@H](OC[C@H]3O[C@@H](OC(=O)[C@]45CCC(C)(C)C[C@H]4C4=CC[C@@H]6[C@@]7(C)CC[C@H](O[C@@H]8OC[C@H](O)[C@H](O)[C@H]8O)[C@@](C)(CO)[C@@H]7CC[C@@]6(C)[C@]4(C)CC5)[C@H](O)[C@@H](O)[C@@H]3O)O[C@@H]2CO)[C@H](O)[C@H](O)[C@H]1O` [Cauloside D], the inhibition at 110 µM under setting [1] is 6% and the inhibition at 110 µM under setting [2] stood at 17%.
On to `COc1ccc2c(c1OC)CC1c3c(cc4c(c3-2)OCO4)CCN1C` (stereo not drawn) [Crebanine], for which the inhibition at 110 µM reads like this: under setting [1], 0%; under setting [2], 4%.
For `C[C@@]1(CO)C[C@@H](O)C[C@@]2(C)[C@@H]3CC[C@](C)([C@@H](O)CO)C=C3CC[C@H]12` [Kirenol], in that order: 0% and 15%.
Take `C[N+](C)(C)[C@@H](Cc1c[nH]c2ccccc12)C(=O)[O-]` [Hypaphorine]: the inhibition at 110 µM under setting [1] amounted to 0% and the inhibition at 110 µM under setting [2] was 0%.
Regarding `C=C1C=CC(C(C)C)CC1` (stereo not drawn) [β-Phellandrene], the inhibition at 110 µM runs as follows: under setting [1], 17%; under setting [2], 20%.
For `O=c1cc(-c2ccc(O)cc2)oc2cc(O)c([C@@H]3O[C@H](CO)[C@@H](O)[C@H](O)[C@H]3O)c(O)c12` [Isovitexin], in that order: 11% and 6%.
Taken in the same sequence, the figures for `COC(=O)[C@@]12OC[C@]34[C@H]([C@@H](O)[C@@H]1O)[C@@]1(C)CC(=O)C(O)=C(C)[C@@H]1C[C@H]3OC(=O)[C@H](OC(=O)/C=C(\C)C(C)C)[C@@H]24` [Bruceantin] were 24% and 69%.
Taken in the same sequence, the figures for `O=c1c(O[C@@H]2O[C@@H](CO)[C@H](O)[C@H]2O)c(-c2ccc(O)c(O)c2)oc2cc(O)cc(O)c12` [Avicularin] were 33% and 21%.
As for `Cn1nnc(-c2ccc(-c3ccc(N4C[C@H](CO)OC4=O)cc3F)cn2)n1` [Tedizolid], the inhibition at 110 µM under setting [1] turned out to be 20% and the inhibition at 110 µM under setting [2] came out at 12%.
On to `Nc1ccc(S(=O)(=O)c2ccc(N)cc2)cc1` [Dapsone], for which the inhibition at 110 µM runs as follows: under setting [1], 42%; under setting [2], 24%.
Take `C[C@@H]1O[C@@H](O[C@H]2C(=O)c3c(O)cc(O)cc3O[C@@H]2c2ccc(O)c(O)c2)[C@H](O)[C@H](O)[C@H]1O` [Astilbin]: the inhibition at 110 µM is, setting by setting: under setting [3], 31%; under setting [4], 0%.
Turning to `CC[C@@H]1/C=C(\C)C[C@H](C)C[C@H](OC)[C@H]2O[C@@](O)(C(=O)C(=O)N3CCCC[C@H]3C(=O)O[C@H](/C(C)=C/[C@@H]3CC[C@@H](O)[C@H](OC)C3)[C@H](C)[C@@H](O)CC1=O)[C@H](C)C[C@@H]2OC` [Ascomycin], the inhibition at 110 µM by setting is: under setting [1], 6%; under setting [2], 0%.
With `CC(C)(O)[C@@H]1[C@H]2OC(=O)[C@@H]1[C@]1(O)C[C@H]3O[C@]34C(=O)O[C@H]2[C@]14C` [Picrotin], the inhibition at 110 µM under setting [1] was 0% and the inhibition at 110 µM under setting [2] amounted to 0%.
With `O=C1C=CC[C@@H]2[C@H]3CCCN4CCC[C@@H](CN12)[C@@H]34` [Sophocarpine], the inhibition at 110 µM was 11% under setting [1] and 9% under setting [2].
Consider `CC(C)(O)/C=C/C(=O)[C@](C)(O)[C@H]1[C@H](O)C[C@@]2(C)[C@@H]3CC=C4[C@@H](C[C@H](O)C(=O)C4(C)C)[C@]3(C)C(=O)C[C@]12C` [Cucurbitacin D], for which the inhibition at 110 µM under setting [1] turned out to be 10% and the inhibition at 110 µM under setting [2] worked out at 22%.
For the compound `COC(=O)Nc1nc2ccc(Sc3ccccc3)cc2[nH]1` [Fenbendazole], the inhibition at 110 µM under setting [1] worked out at 8% and the inhibition at 110 µM under setting [2] is 14%.
Taken in the same sequence, the figures for `CC(C)=C1CC[C@@H](C)CC1=O` [Pulegone] were 6% and 5%.
Consider `CC1(C)CC[C@]2(C(=O)O)CC[C@]3(C)C(=CC[C@@H]4[C@@]5(C)C[C@@H](O)[C@H](O)C(C)(C)[C@@H]5CC[C@]43C)[C@@H]2C1` [Maslinic acid], for which the inhibition at 110 µM by setting is: under setting [1], 0%; under setting [2], 5%.
For `C=C(C)[C@@H]1CCC2=CC(=O)C[C@@H](C)[C@]2(C)C1` [Nootkatone], in that order: 28% and 20%.
Taken in the same sequence, the figures for `Nc1nc2c(ncn2COCCO)c(=O)[nH]1` [Acyclovir] were 17% and 12%.
On to `COc1ccc(-c2coc3cc(O)ccc3c2=O)cc1O` [Calycosin], for which the inhibition at 110 µM by setting is: under setting [3], 16%; under setting [4], 1%.
With `NCCS(=O)(=O)O` [Taurine], the inhibition at 110 µM is, setting by setting: under setting [1], 8%; under setting [2], 0%.
Take `CC(=O)O[C@]1(C(C)=O)CC[C@H]2[C@@H]3C[C@H](C)C4=CC(=O)CC[C@]4(C)[C@H]3CC[C@@]21C` [Medroxyprogesterone acetate]: the inhibition at 110 µM is, setting by setting: under setting [1], 11%; under setting [2], 6%.
Taken in the same sequence, the figures for `Cc1c(C)[n+](Cc2ccccc2)cn1Cc1ccccc1` [Lepidiline A] were 5% and 14%.
For the compound `CC(C)(O)/C=C/C(=O)[C@](C)(O)[C@H]1[C@H](O)C[C@@]2(C)[C@@H]3CC=C4[C@@H](C=C(O)C(=O)C4(C)C)[C@]3(C)C(=O)C[C@]12C` [Cucurbitacin I], the inhibition at 110 µM was found to be 0% under setting [1] and 23% under setting [2].
As to `COc1cc(NS(=O)(=O)c2ccc(N)cc2)nc(OC)n1` [Sulfadimethoxine], the inhibition at 110 µM reads like this: under setting [1], 15%; under setting [2], 3%.
Taken in the same sequence, the figures for `CC(=O)C1=C(O)[C@@H]2[C@H]3c4c[nH]c5cccc(c45)C[C@H]3C(C)(C)N2C1=O` [Cyclopiazonic acid] were 6% and 2%.
As to `N[C@@H](CO)C(=O)O` [L-Serine], the inhibition at 110 µM is, setting by setting: under setting [1], 0%; under setting [2], 0%.
Consider `COc1cc(-c2oc3cc(O)cc(O)c3c(=O)c2O)ccc1O` [Isorhamnetin], for which the inhibition at 110 µM reads like this: under setting [1], 22%; under setting [2], 2%.
Taken in the same sequence, the figures for `CC12CCC(C1)C(C)(C)C2O` (stereo not drawn) [Fenchyl alcohol] were 2% and 0%.
On to `C[C@@H]1CC[C@]2(C(=O)O)CC[C@]3(C)C(=CC[C@@H]4[C@@]5(C)CC[C@H](O)[C@@](C)(CO)[C@@H]5CC[C@]43C)[C@@H]2[C@]1(C)O` [Rotundic acid], for which the inhibition at 110 µM under setting [1] was 24% and the inhibition at 110 µM under setting [2] turned out to be 45%.
